Source: publication PMC7352759, “S(+)-(2E)-N-(2-Hydroxypropyl)-3-Phenylprop-2-Enamide (KM-568): A Novel Cinnamamide Derivative with Anticonvulsant Activity in Animal Models of Seizures and Epilepsy” (International Journal of Molecular Sciences, 2020)

What was measured:
[1] = test system: mice; assay: Subcutaneous metrazol seizure threshold test (scMET), mice; type: in vivo; conditions: for ED50: Mus musculus, 95% confidence interval in parentheses
Experimental: (§1) In vivo activity testing was performed at the Epilepsy Branch, National Institute of Neurological Disorders and Stroke, National Institutes of Health (NIH, Bethesda, USA) within the Anticonvulsant Screening Program (ASP) (currently known as the Epilepsy Therapy Screening Program (ETSP)). Pharmacological evaluation was planned and performed in accordance with the Institute of Laboratory Resources polices on the humane care of laboratory animals and approved by the University of Utah’s Institutional Animal Care and Use Committee (IACUC). All testing protocols were previously published as well as they are available on the NIH website. In the tests, albino mice Carworth Farms No.1 (CF-1) (Charles River), C57/Bl6 mice (Charles River), Frings mice (University of Utah) or male rats Sprague–Dawley (Charles River) were used. All animals were housed, fed, and handled in a manner consistent with the recommendations in the National Council Publication, ‘Guide for the Care and Use of Laboratory animals’ [51]. The tested compound was suspended in 0.5% methylcellulose.
(§2) The tested compound was administered i.p. or p.o. at certain dose. Then, subcutaneous injection of metrazol (syn. pentetrazol, pentylenepentetrazol) dissolved in 0.9% NaCl at the dose of 85 mg/kg (mice) or 70 mg/kg (rats) was performed to induce seizures. Protection was scored if there was not an observed episode of clonic spasm of at least 5 sec.

[2] = test system: rats; assay: Subcutaneous metrazol seizure threshold test (scMET), rats; type: in vivo; conditions: for ED50: Rattus norvegicus; for scMET Results (protected/tested animals): i.p.
Experimental: as §1, §2

[3] = test system: mice; assay: 6-Hz psychomotor seizure model (32 mA, 44 mA); type: in vivo; conditions: for ED50: Mus musculus, ip, 95% confidence interval in parentheses; for 6-Hz (32 mA) Results (protected/tested animals) / 6-Hz (44 mA) Results (protected/tested animals): i.p.
Experimental: The test was performed after 0.25 h (for 32 mA current) or 0.5 h (for 44 mA current) of i.p. administration of compound KM-568. The groups of 8 animals were challenged for a single dose of the tested compounds. In addition, 0.2 ms pulses of electric current at 6 Hz and 32 mA or 44 mA were delivered for 3 sec via corneal electrodes. The mouse was released into an observation cage immediately after stimulation. The electric stimulation in a 6-Hz test causes a minimal clonic phase followed by stereotyped, automatic behaviors. The seizure activity can be described as stun, forelimb clonus, twitching of the vibrissae, and Straub tail. The protection was scored if the mouse resumed its normal activity within 10 sec from the stimulation.

[4] = test system: C57/Bl6 mice; assay: Mesial temporal lobe epilepsy model (MTLE); type: in vivo; conditions: 114 mg/kg i.p., recording period 20–40 min
Experimental: Adult male C57/Bl6 mice were placed in a stereotactic frame, injected with kainate (1 nmol/100 nL) and implanted with 1 bipolar electrode in the dorsal hippocampus. The animals were then allowed to recover for four weeks. Four animals chosen for tests were intraperitoneally injected with KM-568 at 114 mg/kg (ED50 obtained in 6-Hz 44 mA test). Digital EEG recordings were performed on freely moving animals for 20 min pre-injection (reference period) and from 20 to 40 min after injection (10 min before and 10 min after peak time of effect in a 6-Hz 44 mA test). Animals are used as their own controls. In the testing periods, spontaneous recurrent hippocampal paroxysmal discharges (HPD) were counted.

[5] = test system: mice; assay: Formalin test of hyperalgesia; type: in vivo; conditions: 44 mg/kg i.p.; for Reduction of time of licking of the affected paw: not statistically significant; for AUC % Control: vs methylcellulose
Experimental: 0.05% formalin was injected subdermal to the hindpaws of mice, which caused licking. In the tested group (n = 8), KM-568 was administered intraperitoneally 0.25 h prior to formalin at the dose of 44 mg/kg. In the control group, methylcellulose was used. Animals were then observed for the first 2 min of each 5 min for a total of 40 min. The cumulative duration of licking (in sec) during each 2-min recording period was measured for analysis across compound and vehicle-pretreated groups.

[6] = test system: rat cerebral cortex GABA receptor; assay: GABA receptor radioligand binding ([3H]GABA); conditions: 10 µM; non-selective agonist radioligand
Experimental: (§3) In order to identify molecular mechanism of action, KM-568 was tested at 10 µM in three radioligand binding assays: rat cerebral cortex GABA receptor non-selective agonist radioligand, AMPA (α-amino-3-hydroxy-5-methyl-4-isoxazolepropionic acid) receptor agonist radioligand, and NMDA (N-methyl-D-aspartate) receptor antagonist radioligand as well as one functional assay involving a human recombinant TRPV1 receptor expressed in CHO cells (agonist and antagonist effects).
(§4) Tests were performed by Eurofins Cerep (Eurofins CEREP SA, Celle-Lévescault, France) as a commercial service. In radioligand assays, rat cerebral cortex GABA receptor as well as rat cerebral cortex AMPA (α-amino-3-hydroxy-5-methyl-4-isoxazolepropionic acid) and NMDA (N-methyl-D-aspartate) receptors with 10 nM [^3H]GABA, 8 nM [^3H]AMPA, and 5 nM [^3H]CGP39653, respectively, were used. The results were detected by means of scintillation counting. In functional assays, a human recombinant TRPV1 receptor expressed in Chinese hamster ovary (CHO) cells with 1 µM capsaicin or 30 nM capsazepine were used. Fluorimetry was used as a detection method.

[7] = test system: rat cerebral cortex AMPA receptor; assay: AMPA receptor radioligand binding ([3H]AMPA); conditions: 10 µM; agonist radioligand
Experimental: as §3, §4

[8] = biological target: T1, human recombinant TRPV1 receptor expressed in CHO cells (Homo sapiens, UniProt Q8NER1); assay: TRPV1 functional assay (agonist and antagonist effects); type: cell-based; conditions: 10 µM
T1 construct: host or cells: CHO cells
T1 sequence (Q8NER1 whole entry): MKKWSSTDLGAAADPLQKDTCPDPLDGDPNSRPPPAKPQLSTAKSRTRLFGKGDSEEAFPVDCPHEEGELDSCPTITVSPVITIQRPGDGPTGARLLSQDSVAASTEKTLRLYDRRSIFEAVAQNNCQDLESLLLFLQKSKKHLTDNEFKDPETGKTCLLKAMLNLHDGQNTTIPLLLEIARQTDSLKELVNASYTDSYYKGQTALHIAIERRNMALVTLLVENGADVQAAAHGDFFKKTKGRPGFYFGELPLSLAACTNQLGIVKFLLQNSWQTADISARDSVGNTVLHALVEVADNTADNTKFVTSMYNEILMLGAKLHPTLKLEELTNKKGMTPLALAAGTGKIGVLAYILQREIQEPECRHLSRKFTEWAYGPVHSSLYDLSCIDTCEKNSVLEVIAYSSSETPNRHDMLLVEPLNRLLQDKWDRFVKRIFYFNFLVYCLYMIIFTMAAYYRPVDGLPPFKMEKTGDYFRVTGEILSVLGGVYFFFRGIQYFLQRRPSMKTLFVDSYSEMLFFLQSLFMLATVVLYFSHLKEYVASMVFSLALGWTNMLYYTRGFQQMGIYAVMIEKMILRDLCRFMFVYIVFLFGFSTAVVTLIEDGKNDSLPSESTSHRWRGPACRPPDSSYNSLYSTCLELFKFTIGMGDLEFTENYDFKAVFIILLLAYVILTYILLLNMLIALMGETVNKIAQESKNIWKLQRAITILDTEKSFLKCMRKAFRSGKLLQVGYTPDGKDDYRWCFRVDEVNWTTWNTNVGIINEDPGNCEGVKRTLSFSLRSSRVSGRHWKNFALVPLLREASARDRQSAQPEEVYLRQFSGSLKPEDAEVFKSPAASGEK
Experimental: as §3, §4

Compound: C[C@H](O)CNC(=O)/C=C/c1ccccc1 [KM-568, S(+)-(2E)-N-(2-hydroxypropyl)-3-phenylprop-2-enamide]
- ED50 ([1]; ip, 0.25 h): 104 mg/kg
- ED50 ([1]; po, 0.5 h): 107 mg/kg
- scMET Results (protected/tested animals) ([1]; i.p., 70 mg/kg, 0.25 h): 2/8
- scMET Results (protected/tested animals) ([1]; i.p., 100 mg/kg, 0.25 h): 3/8
- scMET Results (protected/tested animals) ([1]; i.p., 138 mg/kg, 0.25 h): 5/8
- scMET Results (protected/tested animals) ([1]; i.p., 170 mg/kg, 0.25 h): 8/8
- scMET Results (protected/tested animals) ([1]; p.o., 50 mg/kg, 0.5 h): 1/8
- scMET Results (protected/tested animals) ([1]; p.o., 100 mg/kg, 0.5 h): 4/8
- scMET Results (protected/tested animals) ([1]; p.o., 150 mg/kg, 0.5 h): 4/8
- scMET Results (protected/tested animals) ([1]; p.o., 200 mg/kg, 0.5 h): 8/8
- ED50 ([2]; ip, 0.25 h, 95% confidence interval in parentheses): 41.7 mg/kg
- ED50 ([2]; po, 1.0 h, doses 62.5, 125.0, 250.0 mg/kg): > 250 mg/kg
- scMET Results (protected/tested animals) ([2]; 30 mg/kg, 0.25 h): 1/8
- scMET Results (protected/tested animals) ([2]; 45 mg/kg, 0.25 h): 4/8
- scMET Results (protected/tested animals) ([2]; 60 mg/kg, 0.25 h): 8/8
- scMET Results (protected/tested animals) ([2]; 95 mg/kg, 0.25 h): 8/8
- ED50 ([3]; 32 mA, 0.25 h, read-out: 6-Hz (32 mA) ED50): 71.5 mg/kg
- ED50 ([3]; 44 mA, 0.5 h, read-out: 6-Hz (44 mA) ED50): 114 mg/kg
- 6-Hz (32 mA) Results (protected/tested animals) ([3]; 50 mg/kg, 0.25 h): 1/8
- 6-Hz (44 mA) Results (protected/tested animals) ([3]; 50 mg/kg, 0.5 h): 0/8
- 6-Hz (32 mA) Results (protected/tested animals) ([3]; 75 mg/kg, 0.25 h): 3/8
- 6-Hz (32 mA) Results (protected/tested animals) ([3]; 87 mg/kg, 0.25 h): 7/8
- 6-Hz (44 mA) Results (protected/tested animals) ([3]; 100 mg/kg, 0.5 h): 3/8
- 6-Hz (32 mA) Results (protected/tested animals) ([3]; 110 mg/kg, 0.25 h): 8/8
- 6-Hz (44 mA) Results (protected/tested animals) ([3]; 150 mg/kg, 0.5 h): 6/8
- 6-Hz (44 mA) Results (protected/tested animals) ([3]; 200 mg/kg, 0.5 h): 8/8
- Effect (% of Baseline), HPD counts [4]: 73.9 % of Baseline
- Mean HPD Counts [4]: 12.8
- AUC (total area under curve, time of licking) ([5]; acute phase): 184.18
- Reduction of time of licking of the affected paw ([5]; acute phase): 24%
- AUC % Control ([5]; acute phase): 76.37 % Control
- AUC (total area under curve, time of licking) ([5]; inflammatory phase): 556.81
- Reduction of time of licking of the affected paw ([5]; inflammatory phase): 32%
- AUC % Control ([5]; inflammatory phase): 67.96 % Control
- Effect in GABA receptor radioligand binding assay [6]: No significant effects
- Effect in AMPA receptor radioligand binding assay [7]: No significant effects
- TRPV1 agonist effect [8]: No significant effects
- TRPV1 antagonist effect [8]: No significant effects
